In assay [1] the test system is leukemic cells L 1210. Also on record: species or system mice. The note with it: mouse, in vivo.
Assay [2] has as its system larvae of schistosoma mansoni. As to the kind of experiment: Release of 51 chromium from larvae of schistosoma mansoni, cytotoxicity in vivo. The note with it: macrophages of the rat stimulated in vivo. The text has this:
The depsipeptide from Fusarium equiseti has been tested to determine its action in vivo on the cytotoxicity induced in the intraperitoneal macrophages of the rat against the larvae of schistosoma mansoni.
The macrophages are stimulated either in vitro or in vivo and are contacted with a suspension of larvae of schistosoma mansoni previously tagged with 51 chromium.
This measure reflects the significance of cellular lesions on the surface of the schistosomules. The radio activity released in the medium is expressed as a percentage of the total radio-activity present in the schistosomules at the beginning of the experiments.

The subject of assay [3] is peritoneal macrophages from unstimulated rats (Fisher strain). As to the kind of experiment: Stimulation of the activities of the macrophages, cultivated with the substance. It is filed as cell-based. The note with it: 16 hours incubation. The protocol:
The peritoneal macrophages from unstimulated rats (Fisher strain) are prelevated through peritoneal washing and isolation on plastic rack. They are cultivated for a night with dosages of the depsipeptide ranging from 1 picogramm to 1 nanogramm/ml.
The content in proteins, in lysosomal β-glucoronidase, and in cytoplasmic leucine-amino peptidase are determined on the cells previously lysed with 0.05% Triton X-100.
In the same manner, incubation has also been performed with a solution of lipopolysaccharide from Escherichia coli and Muramyldipeptide as reference substances.
Amounts of cellular enzymes and proteins in the macrophages after 16 hours incubation.
The content in proteins is expressed in g/10^6 cells and that in β-glucuronidase in mMol of substrate hydrolysed by 10^6 cells per hour.

Where [4] appears, read: 1 ng/ml (row printed after the first 100 ng/ml).
The mark [5] stands for this setting: 10 ng/ml (second row so printed).
[6] abbreviates: 100 ng/ml (second row so printed, last row).

As to `O=P1(N(CCCl)CCCl)NCCCO1` (stereo not drawn) [Cyclophosphamide], the survival time entry in assay [1] is “extends in a statiscally significative manner”.
On to `CC(=O)N[C@@H]1[C@@H](O[C@H](C)C(=O)N[C@@H](C)C(=O)N[C@H](CCC(=O)O)C(N)=O)[C@H](O)[C@@H](CO)O[C@H]1O` [Muramyldipeptide], for which the “release of 51 Cr (change)” value is “+6%” in assay [2] (1 g) and “+10%” in assay [2] (100 g). Also, the Proteins in assay [3] (1 pg/ml) is on record as 46,1 ± 2,2 g/10^6 cells; in assay [3] (10 pg/ml), 44,8 ± 0,7 g/10^6 cells; in assay [3] (100 pg/ml), 44,6 ± 1,9 g/10^6 cells; in assay [3] (setting [4]), 45,1 ± 0,9 g/10^6 cells; in assay [3] (1 ng) it was 44,0 ± 1,8 g/10^6 cells; in assay [3] (setting [5]) it was 48,1 ± 1,8 g/10^6 cells. For the same compound, the results for the Proteins in assay [3] (10 ng/ml), in assay [3] (setting [6]) and in assay [3] (100 ng/ml) were 43,4 ± 1,8 g/10^6 cells, 55,3 ± 3,1 g/10^6 cells and 40,5 ± 0,7 g/10^6 cells, respectively. The β-glucuronidase in assay [3] (1 pg/ml) is on record as 36,5 ± 0,1 mMol of substrate hydrolysed b; in assay [3] (10 pg/ml), 36,3 ± 6,4 mMol of substrate hydrolysed b; in assay [3] (100 pg/ml), 41,0 ± 2,9 mMol of substrate hydrolysed b; in assay [3] (setting [4]), 30,6 ± 3,8 mMol of substrate hydrolysed b; in assay [3] (1 ng), 34,0 ± 5,3 mMol of substrate hydrolysed b; in assay [3] (setting [5]), 32,2 ± 3,0 mMol of substrate hydrolysed b. Moreover, the β-glucuronidase in assay [3] (10 ng/ml) is recorded as 39,6 ± 6,1 mMol of substrate hydrolysed b; in assay [3] (setting [6]) it was 39,0 ± 1,6 mMol of substrate hydrolysed b; in assay [3] (100 ng/ml) it was 23,9 ± 6,2 mMol of substrate hydrolysed b.
